Each block holds one molecule with its values, some of them ahead of it.
Target: T1, human neurotrypsin (Homo sapiens, UniProt P56730)
T1 sequence (P56730 21-875): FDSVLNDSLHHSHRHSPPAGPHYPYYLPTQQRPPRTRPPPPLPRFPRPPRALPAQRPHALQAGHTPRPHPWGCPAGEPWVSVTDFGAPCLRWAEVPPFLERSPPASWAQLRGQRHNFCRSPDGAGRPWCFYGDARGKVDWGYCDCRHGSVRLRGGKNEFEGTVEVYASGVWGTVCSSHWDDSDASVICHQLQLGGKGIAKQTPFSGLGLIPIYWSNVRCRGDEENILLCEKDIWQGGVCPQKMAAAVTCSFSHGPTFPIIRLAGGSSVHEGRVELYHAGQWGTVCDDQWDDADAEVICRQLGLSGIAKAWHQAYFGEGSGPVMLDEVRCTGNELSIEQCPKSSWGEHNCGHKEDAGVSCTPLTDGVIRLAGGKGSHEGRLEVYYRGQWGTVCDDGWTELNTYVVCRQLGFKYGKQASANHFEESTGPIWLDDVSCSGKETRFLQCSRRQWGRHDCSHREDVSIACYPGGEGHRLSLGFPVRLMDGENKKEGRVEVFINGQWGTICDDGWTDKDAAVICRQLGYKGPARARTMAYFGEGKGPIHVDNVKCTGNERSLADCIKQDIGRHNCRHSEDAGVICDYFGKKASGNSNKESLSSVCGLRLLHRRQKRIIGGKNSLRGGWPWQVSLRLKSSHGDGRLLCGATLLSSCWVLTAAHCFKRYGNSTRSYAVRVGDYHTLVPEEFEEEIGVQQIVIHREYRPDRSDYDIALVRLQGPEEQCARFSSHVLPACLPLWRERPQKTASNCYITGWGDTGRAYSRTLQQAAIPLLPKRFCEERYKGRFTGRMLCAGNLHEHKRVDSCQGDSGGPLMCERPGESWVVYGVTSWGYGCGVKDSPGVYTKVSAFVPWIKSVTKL
Assay: Determination of IC50 for human neurotrypsin
Type: biochemical
Settings: human neurotrypsin; method of WO 2006/1103261; read-out: Neurotrypsin IC50
Protocol: Assessment of the potency of compounds of examples 1-311 in inhibiting the enzymatic activity of human neurotrypsin was performed according to the method described in patent application WO 2006/1103261

Compound: O=C(Nc1ccc(CCc2ccccc2)cc1)c1ccc(C(=O)O)c(NC(=O)c2sc3ccccc3c2Cl)c1 [Example 63, 2-(3-Chlorobenzo[b]-thiophene-2-carboxamido)-4-(4-phenethylphenyl-carbamoyl)benzoic acid]
- IC50: 130 µM

Compound: O=C(Nc1ccc(Oc2ccccc2)cc1)c1ccc(C(=O)O)c(NC(=O)c2sc3ccccc3c2Cl)c1 [Example 64]
- IC50: 23.3 µM

Compound: O=C(Nc1cccc(Oc2ccccc2)c1)c1ccc(C(=O)O)c(NC(=O)c2sc3ccccc3c2Cl)c1 [Example 65]
- IC50: 7.3 µM

Compound: O=C(Nc1ccc(Cc2ccccc2)cc1)c1ccc(C(=O)O)c(NC(=O)c2sc3ccccc3c2Cl)c1 [Example 67]
- IC50: 10.7 µM

Compound: CC(C)(C)c1ccc(NC(=O)c2ccc(C(=O)O)c(NC(=O)c3sc4ccccc4c3Cl)c2)cc1 [Example 69]
- IC50: 3.1 µM

Compound: O=C(Nc1ccc(Oc2ccccc2)c(Cl)c1)c1ccc(C(=O)O)c(NC(=O)c2sc3ccccc3c2Cl)c1 [Example 73]
- IC50: 4.4 µM

Compound: O=C(O)CN(C(=O)c1ccc(C(=O)O)c(NC(=O)c2sc3ccccc3c2Cl)c1)c1ccc(Cl)cc1 [Example 74]
- IC50: 26.1 µM

Compound: CC(C)(C)c1cccc(NC(=O)c2ccc(C(=O)O)c(NC(=O)c3sc4ccccc4c3Cl)c2)c1 [Example 75]
- IC50: 5.6 µM

Compound: CC(C)(C)Oc1ccc(NC(=O)c2ccc(C(=O)O)c(NC(=O)c3sc4ccccc4c3Cl)c2)cc1 [Example 78]
- IC50: 19.2 µM

Compound: O=C(Nc1ccccc1O)c1ccc(C(=O)O)c(NC(=O)c2sc3ccccc3c2Cl)c1 [Example 82]
- IC50: 17.8 µM

Compound: O=C(Nc1ccc(Oc2cccnc2)cc1)c1ccc(C(=O)O)c(NC(=O)c2sc3ccccc3c2Cl)c1 [Example 84]
- IC50: 4.8 µM

Compound: O=C(Nc1ccc(Oc2cccnc2)c(Cl)c1)c1ccc(C(=O)O)c(NC(=O)c2sc3ccccc3c2Cl)c1 [Example 85]
- IC50: 2.3 µM

Compound: O=C(Nc1nc2ccc(Cl)cc2s1)c1ccc(C(=O)O)c(NC(=O)c2sc3ccccc3c2Cl)c1 [Example 87, 2-(3-Chlorobenzo[b]-thiophene-2-carboxamido)-4-(6-chlorobenzo[d]thiazol-2-yl-carbamoyl)benzoic acid]
- IC50: 4.3 µM

Compound: CN(C(=O)c1ccc(C(=O)O)c(NC(=O)c2sc3ccccc3c2Cl)c1)c1cc2ccccc2s1 [Example 88]
- IC50: 24.8 µM

Compound: O=C(NCc1ccc(Cl)s1)c1ccc(C(=O)O)c(NC(=O)c2sc3ccccc3c2Cl)c1 [Example 90]
- IC50: 4.9 µM

Compound: O=C(NCc1ccc(-c2ccc(Cl)cc2)s1)c1ccc(C(=O)O)c(NC(=O)c2sc3ccccc3c2Cl)c1 [Example 91, 2-(3-Chlorobenzo[b]-thiophene-2-carboxamido)-4-((5-(4-chlorophenyl)thiophen-2-ylmethyl)carbamoyl)-benzoic acid]
- IC50: 10 µM

Compound: O=C(O)c1ccc(C(=O)N2CCCc3ccccc32)cc1NC(=O)c1sc2ccccc2c1Cl [Example 97]
- IC50: 10.3 µM

Compound: O=C(O)c1ccc(C(=O)N2CCC(O)(c3ccc(Cl)cc3)CC2)cc1NC(=O)c1sc2ccccc2c1Cl [Example 99]
- IC50: 6.9 µM

Compound: O=C(O)c1ccc(C(=O)N2CCC(Oc3ccccc3)C2)cc1NC(=O)c1sc2ccccc2c1Cl (stereo not drawn) [Example 101]
- IC50: 9 µM

Compound: O=C(O)c1ccc(C(=O)N2CCC(c3ccccc3)C2)cc1NC(=O)c1sc2ccccc2c1Cl (stereo not drawn) [Example 103]
- IC50: 4.1 µM

Compound: O=C(O)c1cc(C(=O)N2CCC(c3ccc(Cl)cc3)C2)ccc1NC(=O)c1sc2ccccc2c1Cl (stereo not drawn) [Example 108]
- IC50: 3.9 µM

Compound: CC(NC(=O)c1ccc(NC(=O)c2ccc(-c3ccc(Cl)cc3)s2)c(C(=O)O)c1)c1ccc(Cl)cc1 (stereo not drawn) [Example 110]
- IC50: 3.4 µM

Compound: O=C(NC1CCCc2ccccc21)c1ccc(NC(=O)c2ccc(-c3ccc(Cl)cc3)s2)c(C(=O)O)c1 (stereo not drawn) [Example 112]
- IC50: 5 µM

Compound: O=C(O)c1cc(C(=O)N2CCC(c3ccc(F)cc3)CC2)ccc1NC(=O)c1sc2ccccc2c1Cl [Example 113]
- IC50: 2.7 µM

Compound: O=C(O)c1cc(C(=O)N2CCC(Cc3ccc(F)cc3)CC2)ccc1NC(=O)c1sc2ccccc2c1Cl [Example 114]
- IC50: 3 µM

Compound: O=C(O)c1cc(C(=O)N2CCC(c3ccc(Cl)cc3)CC2)ccc1NC(=O)c1sc2ccccc2c1Cl [Example 115]
- IC50: 3.1 µM

Compound: COc1ccc(C2CCN(C(=O)c3ccc(NC(=O)c4sc5ccccc5c4Cl)c(C(=O)O)c3)CC2)cc1 [Example 116]
- IC50: 2.4 µM

Compound: COc1ccc(CC2CCN(C(=O)c3ccc(NC(=O)c4sc5ccccc5c4Cl)c(C(=O)O)c3)CC2)cc1 [Example 117]
- IC50: 2.9 µM

Compound: O=C(O)c1cc(C(=O)N2CCC(Cc3ccc(Cl)cc3)CC2)ccc1NC(=O)c1sc2ccccc2c1Cl [Example 118, 2-(3-Chlorobenzo[b]-thiophene-2-carboxamido)-5-(4-(4-chlorobenzyl)piperidine-1-carbonyl)benzoic acid]
- IC50: 2.2 µM

Compound: O=C(Nc1ccc(Cl)cc1)c1ccc(NC(=O)c2ccc(-c3cccs3)cc2O)c(C(=O)O)c1 [Example 120, 5-(4-Chlorophenyl-carbamoyl)-2-(2-hydroxy-4-(thiophen-2-yl)benzamido)-benzoic acid]
- IC50: 4.1 µM

Compound: Cc1cccc(C)c1C1CCN(C(=O)c2ccc(NC(=O)c3sc4ccccc4c3Cl)c(C(=O)O)c2)CC1 [Example 121]
- IC50: 4.9 µM

Compound: O=C(O)c1cc(C(=O)N2CCC(c3ccc(O)cc3)CC2)ccc1NC(=O)c1sc2ccccc2c1Cl [Example 122]
- IC50: 9.4 µM

Compound: O=C(NCCc1ccccc1)c1ccc(NC(=O)c2ccc(-c3nc4cc(Cl)c(Cl)cc4[nH]3)cc2)c(C(=O)O)c1 [Example 123]
- IC50: 3.5 µM

Compound: O=C(Nc1ccc(C(=O)N2CCCCC2)cc1C(=O)O)c1ccc(-c2nc3cc(Cl)c(Cl)cc3[nH]2)cc1 [Example 124]
- IC50: 3.9 µM

Results, then the molecule that gave them:

- IC50: 3.5 µM
Compound: O=C(Nc1ccc(C(=O)NC2CCCCC2)cc1C(=O)O)c1ccc(-c2nc3cc(Cl)c(Cl)cc3[nH]2)cc1 [Example 125]

- IC50: 1.2 µM
Compound: O=C(NCC1CCCCC1)c1ccc(NC(=O)c2ccc(-c3nc4cc(Cl)c(Cl)cc4[nH]3)cc2)c(C(=O)O)c1 [Example 126]

- IC50: 1 µM
Compound: CCCCc1ccc(NC(=O)c2ccc(NC(=O)c3ccc(-c4nc5cc(Cl)c(Cl)cc5[nH]4)cc3)c(C(=O)O)c2)cc1 [Example 129]

- IC50: 7.6 µM
Compound: CC(C)CNC(=O)c1ccc(NC(=O)c2ccc(-c3nc4cc(Cl)c(Cl)cc4[nH]3)cc2)c(C(=O)O)c1 [Example 130]

- IC50: 0.7 µM
Compound: CC(C)CN(CC(C)C)C(=O)c1ccc(NC(=O)c2ccc(-c3nc4cc(Cl)c(Cl)cc4[nH]3)cc2)c(C(=O)O)c1 [Example 131]

- IC50: 5.3 µM
Compound: O=C(NCc1ccccc1)c1ccc(NC(=O)c2ccc(-c3nc4cc(Cl)c(Cl)cc4[nH]3)cc2)c(C(=O)O)c1 [Example 132]

- IC50: 1.9 µM
Compound: CC(NC(=O)c1ccc(NC(=O)c2ccc(-c3nc4cc(Cl)c(Cl)cc4[nH]3)cc2)c(C(=O)O)c1)c1ccc(Cl)cc1 (stereo not drawn) [Example 133]

- IC50: 1.9 µM
Compound: O=C(Nc1ccc(Cl)cc1)c1ccc(NC(=O)c2[nH]c3ccc(Cl)cc3c2-c2ccccc2)c(C(=O)O)c1 [Example 134]

- IC50: 0.9 µM
Compound: Cn1c(-c2ccc(C(=O)Nc3ccc(C(=O)Nc4ccc(Cl)cc4)cc3C(=O)O)cc2)nc2cc(Cl)c(Cl)cc21 [Example 135]

- IC50: 2.4 µM
Compound: CCCCCCCNC(=O)c1ccc(NC(=O)c2ccc(-c3nc4cc(Cl)c(Cl)cc4[nH]3)cc2)c(C(=O)O)c1 [Example 137]

- IC50: 6.6 µM
Compound: O=C(Nc1ccccc1)c1ccc(NC(=O)c2ccc(-c3nc4cc(Cl)c(Cl)cc4[nH]3)cc2)c(C(=O)O)c1 [Example 138]

- IC50: 7.5 µM
Compound: O=C(Nc1ccccc1F)c1ccc(NC(=O)c2[nH]c3ccc(Cl)cc3c2-c2ccccc2)c(C(=O)O)c1 [Example 139]

- IC50: 0.9 µM
Compound: O=C(Nc1ccc(Cl)cc1F)c1ccc(NC(=O)c2[nH]c3ccc(Cl)cc3c2-c2ccccc2)c(C(=O)O)c1 [Example 140]

- IC50: 1.9 µM
Compound: O=C(Nc1ccc(C(=O)N2CCC(Cc3ccc(F)cc3)CC2)cc1C(=O)O)c1ccc(-c2nc3cc(Cl)c(Cl)cc3[nH]2)cc1 [Example 141, 2-(4-(5,6-Dichloro-1H-benzo[d]imidazol-2-yl)benzamido)-5-(4-(4-fluorobenzyl)piperidine-1-carbonyl)benzoic acid]

- IC50: 2.2 µM
Compound: COc1ccc2c(Cl)c(C(=O)Nc3cc(C(=O)Nc4ccc(Cl)cc4)ccc3C(=O)O)sc2c1 [Example 142, 2-(3-Chloro-6-methoxy-benzo[b]thiophene-2-carbox)-4-(4-chlorophenylcarbamoyl)-benzoic acid]

- IC50: 3.9 µM
Compound: O=C(Nc1ccc(Cl)cc1)c1ccc(C(=O)O)c(NC(=O)c2cc(Br)cc(Br)c2O)c1 [Example 143, 4-(4-Chlorophenyl-carbamoyl)-2-(3,5-dibromo-2-hydroxybenzamido)benzoic acid]

- IC50: 22.1 µM
Compound: O=C(Nc1ccc(Cl)cc1)c1ccc(C(=O)O)c(NC(=O)c2ccc(-c3ccccn3)s2)c1 [Example 144, 4-(4-Chlorophenyl-carbamoyl)-2-(5-(pyrid-2-yl)-thiophene-2-carboxamido)-benzoic acid]

From patent US20130261130A1, “NEUROTRYPSIN INHIBITORS” (priority 2010, published 2013)
